Data taken from US20240183842A1, “Supercharged Biovesicles and Methods of Use Thereof” (The General Hospital Corporation, priority 2021, published 2024).

Tests used:
HEK293T cells = experiment: Inhibitor pretreatment before Bodipy TR-scEV uptake, flow cytometry; type: cell-based, human; settings: for Bodipy TR fluorescence in recipient cells (scEV uptake) compared to sham / +scProtein fluorescence levels compared to sham: 1 h pretreatment, 24 h Bodipy TR-scEVs, CHL 10 μM, Bort 5 μM; for Bodipy TR fluorescence in recipient cells (scEV uptake) compared to sham: ConA 200 nM, Baf 200 nM
Method: For inhibitor treatment before scEV uptake, HEK293T cells (50,000 cells per well) were seeded in 24-well culture plates (Falcon) for 24 h in DMEM with serum. The cells were then pre-incubated with the inhibitors in Optimem without serum. […] The labelled EVs (10^7-10^8 particles) were added each well for 24 h in the presence of the indicated inhibitors. Following incubation, cells were trypsinized and analyzed based on scProtein and Bodipy TR fluorescence on a Beckman SORP 5 Laser BD Fortessa Flow Cytometer in the MGH core facility.
FLOW CYTOMETRY. Flow cytometric analysis was performed on the Beckman SORP 5 Laser BD Fortessa Flow Cytometer in the MGH core facility. Forward and side scatter signals were used to distinguish live cells from polystyrene beads. Proper gating was performed to identify positive fluorescent signals compared to non-stained or single stained controls.

[1] = target: Flag-Tag affinity beads (antibody based magnetic beads); experiment: elution of bead-bound NoMi-EVs with free Flag peptide, nanoluciferase bioluminescence read-out

Molecule | Bodipy TR fluorescence in recipient cells (scEV uptake) compared to sham (HEK293T cells) | +scProtein fluorescence levels compared to sham (HEK293T cells) | +scProtein fluorescence in combination with Baf and ConA (HEK293T cells; Bort combined with Baf or ConA) | percent of EVs recovered from the beads by peptide elution [1]
CO/C1=C\C(C)=C\[C@@H](C)[C@@H](O)[C@@H](C)C/C(C)=C/C=C/[C@H](OC)[C@@H]([C@@H](C)[C@@H](O)[C@H](C)[C@@]2(O)C[C@@H](O)[C@H](C)[C@@H](C(C)C)O2)OC1=O [Bafilomycin A1] | No significant decrease |  |  | 
CC(C)C[C@H](NC(=O)[C@H](Cc1ccccc1)NC(=O)c1cnccn1)B(O)O [Bortezomib] | increased scEV uptake | increase | increased | 
CCN(CC)CCCC(C)Nc1ccnc2cc(Cl)ccc12 (centres unmarked) [Chloroquine] | significantly increase | increase |  | 
C/C=C/[C@H]1O[C@@](O)([C@@H](C)[C@H](O)[C@H](C)[C@H]2OC(=O)/C(OC)=C/C(C)=C/[C@@H](C)[C@@H](O)[C@@H](CC)[C@@H](O)[C@H](C)C/C(C)=C/C=C/[C@@H]2OC)C[C@@H](O[C@H]2C[C@@H](O)[C@H](OC(N)=O)[C@@H](C)O2)[C@@H]1C [concanamycin A] | No significant decrease |  |  | 
DYDKDDDK [Flag-Tag peptide] |  |  |  | 75%
